The text below walks through data of patent US20240366649A1, “4-ETHYNYL-3-HYDROXY-TETRAHYDROFURANYL-ADENINE PHOSPHORAMIDATES AND RELATED COMPOUNDS AND THEIR USE IN TREATING MEDICAL CONDITIONS” (ROME THERAPEUTICS, INC., priority 2021, published 2024).

The term IC50 denotes the concentration that gives 50% inhibition.

Experiment [1] concerns IFN-β production in PBMCs. Description: Decitabine-stimulated human PBMC assay. It counts as cell-based. Particulars: anti-CD3/anti-CD28, 10 μM decitabine, 5 days. The method, then: EasySep buffer (32 mL, Stem Cell, cat. #20144) was used to dilute 8 mL of LRSC buffy coat (from fresh Leukopak) with gentle mixing. The diluted buffy coat (20 mL) was transferred into each of two SepMate 50 tubes, and the tubes were filled with 15 mL of Lyphoprep (Stem Cell, ct. #07851) density gradient. The SepMate tubes were then centrifuged at 1200G for 10 minutes at room temperature with the brake on. The top layer of supernatant was collected in SepMate tubes by quickly pouring it into a new 50 mL conical tube. The PBMCs were washed with EasySep buffer ×2 by centrifuging at 300G for 5 minutes. The cells were resuspended in 30 mL of EasySep and centrifuged at 100G for 5 minutes with the brake off, and the platelets were removed. The cells were then resuspended in 6 mL of 1×RBC lysis buffer (InvitroGen) and incubated at 37° C. for 5 minutes. Then, 25 mL of EasySep buffer was mixed into the tube and it was centrifuged at 300G for 5 minutes. The cells were resuspended in 10 mL of EasySep buffer and the cells were then counted with Cellometer (AO/PI). The PBMCs were resuspended in RPMI1640 (ThermoFisher)+10% FBS (HyClone)+p/s at 3×10^6/mL. The PBMCs (100 μL, 300 k PBMCs) were then seeded in a 96-well flat bottom microplate (Corning) that had been precoated with 100 μL of anti-CD3 antibody (10 μg/mL in PBS, Biolegend) or PBS at 4° C., one day before the assay was commenced. […]

Experiment [2] relates to Ovarian cancer OVCAR-8 cells. Description: Cancer cell viability assay with 3D cell colonies (CellTiter-Glo), OVCAR-8. The class given is cell-based. Particulars: OVCAR-8, 3D methylcellulose colonies, 7 days. The method, then: (§1) Cancer cell lines were cultured in the following media: • Ovarian cancer OVCAR-8 cells—RPMI media containing 10% FBS • Ovarian cancer SK-OV-3 cells—McCoy's 5a media containing 10% FBS • Ovarian cancer SW756 cells—L-15 (100% air)+10% FBS • Esophageal cancer TE-1 cells—RPMI-1640+10% FBS • Esophageal cancer KYSE-410 cells—RPMI-1640+5˜10% FBS • Esophageal cancer KYSE-70 cells—RPMI-1640+10% h.i.FBS. • Pharyngeal cancer FaDu cells—MEM+0.01 mM NEAA+10% FBS
(§2) Cell colony formation was tested using a 3D methylcellulose-based CellTiter-Glo (CTG) viability assay (Cat. No: G7573, Promega). Briefly, cells were inoculated into 96-well plates (at 1,500 cells per well) into a solution of 0.65% methylcellulose in growth media and incubated overnight at 37° C. in 5% CO2. The next day, serially diluted test compound (islatravir, 4′-ethynyl-2-fluoro-2′-deoxyadenosine) or positive control (cisplatin, Cat. No. 6J015A89, Qilu Pharma) were added at the indicated concentrations, and the cells were incubated for 7 days. On day seven, 100 μL of CTG reagent was added, and the plates were incubated at room temperature for 20 min. Luminescence was read on an Envision Multi Label Reader according to manufacturer's instructions. IC50 values were determined using the following calculation: […]
For orientation: In ATP-based viability assays light output follows the ATP content of the culture.

Experiment [3] deals with Ovarian cancer SK-OV-3 cells. Kind of experiment: Cancer cell viability assay with 3D cell colonies (CellTiter-Glo), SK-OV-3. It counts as cell-based. Conditions: SK-OV-3, 3D methylcellulose colonies, 7 days. The method, then:
as §1, §2

Experiment [4] relates to Ovarian cancer SW756 cells. Description: Cancer cell viability assay with 3D cell colonies (CellTiter-Glo), SW756. The class given is cell-based. Conditions: SW756, 3D methylcellulose colonies, 7 days. As for the experimental part: as §1, §2
In experiment [5] the test system is Esophageal cancer TE-1 cells. Kind of experiment: Cancer cell viability assay with 3D cell colonies (CellTiter-Glo), TE-1. It counts as cell-based. Conditions: TE-1, 3D methylcellulose colonies, 7 days. As for the experimental part: as §1, §2
Experiment [6] deals with Esophageal cancer KYSE-410 cells. Kind of experiment: Cancer cell viability assay with 3D cell colonies (CellTiter-Glo), KYSE-410. Particulars: KYSE-410, 3D methylcellulose colonies, 7 days. The class given is cell-based. The method, then:
as §1, §2

Experiment [7] concerns Esophageal cancer KYSE-70 cells. Kind of experiment: Cancer cell viability assay with 3D cell colonies (CellTiter-Glo), KYSE-70. The class given is cell-based. Conditions: KYSE-70, 3D methylcellulose colonies, 7 days. The method, then: as §1, §2
The test system of experiment [8] is Pharyngeal cancer FaDu cells. Kind of experiment: Cancer cell viability assay with 3D cell colonies (CellTiter-Glo), FaDu. The class given is cell-based. Particulars: 3D methylcellulose colonies, 7 days. As for the experimental part: as §1, §2
Experiment [9] deals with LINE1 reverse transcriptase (Homo sapiens, UniProt O00370). Kind of experiment: Homogeneous time-resolved fluorescence (HTRF) LINE1 RT assay. More on the design: recombinant MBP-tagged LINE1 protein (238-1061); MBP; made in house. The class given is biochemical. Conditions: recombinant MBP-tagged LINE1 protein (238-1061), read-out: IC50 for inhibiting LINE1 reverse transcriptase. The method, then: The LINE1 reverse transcriptase homogeneous time-resolved fluorescence (HTRF) assay was performed with recombinant MBP-tagged LINE1 protein (238-1061) (generated and purified according to procedures in Dai L. et al. BMC Biochemistry 2011; 12:18) in a 384-well format. Test compound was serially diluted in DMSO and further diluted in the assay buffer (50 mM Tris-HCl, 50 mM KCl, 10 mM MgCl2, 10 mM DTT, pH 8.1) to achieve a final DMSO concentration of 1%. The serially diluted compound was mixed with 64 ng/well of LINE1 enzyme, 5 nM of pre-annealed template/biotin-primer pair (synthesized at Generay Biotechnology), 10 nM of Fluorescein-12-dATP fluorescent probe (Perkin Elmer), and 1 μM dGTP/dCTP/dTTP (Thermo Fisher Scientific) in the assay buffer. The template/biotin-primer sequences were as follows:
After incubating at 25° C. for 60 minutes, the detection reagent (20 mM EDTA with streptavidin-terbium cryptate, Cisbio Bioassay) in the PPI buffer (Cisbio Bioassay) was added, and the mixture was incubated at 25° C. for 30 minutes. At the end of the incubation, fluorescence was read at ex/em=337/485 nm and ex/em=337/520 nm on an Envision 2104 plate reader (Perkin Elmer). The fluorescence ratio at 520/485 nm was used for the calculation. […] The IC50 was calculated by fitting the compound dose inhibition curve with a 4-parameter non-linear regression equation.
(TR-FRET usually uses a lanthanide donor and a delayed reading to cut background.)

Experiment [10] has as its target T1, HERV-K reverse transcriptase (Homo sapiens, UniProt V9H0F6).
T1 construct: fused on or other part: C-terminal 8His tag
Description: Homogeneous time-resolved fluorescence (HTRF) HERV-K RT assay. Particulars: HERV-K reverse transcriptase (2-596)-8His protein, read-out: IC50 for inhibiting HERV-K reverse transcriptase. The class given is biochemical. As for the experimental part: The HERV-K reverse transcriptase homogeneous time-resolved fluorescence (HTRF) assay was performed in a 384-well format with HERV-K reverse transcriptase (2-596)-8His protein. Baculoviruses were created using Bac-to-Bac technology (Invitrogen). pFastBac donor plasmids containing HERV-K reverse transcriptase sequence (NCBI GenBank number AAC63291.1, J. Virology (1999) Vol. 73, No. 3, pp. 2365-2375) were transformed into DH10 Bac cells following the manufacturer's instructions. Recombinant bacmids were then isolated clonally and transfected into SF9 cells with lipofectin. HERV-K reverse transcriptase was expressed in the SF9 insect cells and then purified using immobilized metal affinity chromatography (IMAC) followed by size-exclusion chromatography (SEC). […]
After incubating at 25° C. for 30 minutes, the detection reagent 20 mM EDTA with streptavidin-terbium cryptate (Cisbio Bioassay) in the PPI buffer (Cisbio Bioassay) was added, and the mixture was incubated at 25° C. for 60 minutes. At the end of the incubation, fluorescence was read at ex/em=337/485 nm and ex/em=337/520 nm on an Envision 2104 plate reader (Perkin Elmer). The fluorescence ratio at 520/485 nm was used for the calculation. […] The IC50 was calculated by fitting the compound dose inhibition curve with a 4-parameter non-linear regression equation.

T1 sequence (V9H0F6 entry or part of it): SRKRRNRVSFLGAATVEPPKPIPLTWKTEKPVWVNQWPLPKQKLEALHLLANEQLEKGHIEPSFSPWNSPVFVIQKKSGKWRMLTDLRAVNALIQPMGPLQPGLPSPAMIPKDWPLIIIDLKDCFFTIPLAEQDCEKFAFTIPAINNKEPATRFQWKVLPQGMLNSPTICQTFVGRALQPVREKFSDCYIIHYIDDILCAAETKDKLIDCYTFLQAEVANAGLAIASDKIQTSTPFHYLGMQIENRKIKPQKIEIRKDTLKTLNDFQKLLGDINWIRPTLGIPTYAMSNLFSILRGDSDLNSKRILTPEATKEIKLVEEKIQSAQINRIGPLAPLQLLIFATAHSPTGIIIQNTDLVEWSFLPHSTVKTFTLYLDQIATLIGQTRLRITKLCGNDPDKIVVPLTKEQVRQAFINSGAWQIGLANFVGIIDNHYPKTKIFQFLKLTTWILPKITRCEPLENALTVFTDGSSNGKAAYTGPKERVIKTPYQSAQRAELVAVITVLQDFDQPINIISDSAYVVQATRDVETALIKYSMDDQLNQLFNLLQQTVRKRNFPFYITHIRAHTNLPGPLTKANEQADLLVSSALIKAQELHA

Consider `C#C[C@]1(CO)O[C@@H](n2cnc3c(N)nc(Cl)nc32)C[C@@H]1O` [4′-ethynyl-2-chloro-2′-deoxyadenosine], for which the “production of IFN-β” value in experiment [1] was “activated production of IFN-β”.
On to `N.N.[Cl][Pt][Cl]` [Cisplatin, cisplatin], for which the IC50 in experiment [2] was no more than 10000 nM; in [3] it was no more than 10000 nM; in experiment [4], no more than 10000 nM; in [5] it was no more than 10000 nM; in experiment [6], greater than 30000 nM; in experiment [7], no more than 10000 nM. For the same compound, the IC50 in experiment [8] is no more than 10000 nM.
As for `C#C[C@]1(COP(=O)(O)OP(=O)(O)OP(=O)(O)O)O[C@@H](n2cnc3c(N)nc(F)nc32)C[C@@H]1O` [drawing 277], in experiment [9], the IC50 was determined as 23 nM.
On to `C#C[C@]1(COP(=O)(O)OP(=O)(O)OP(=O)(O)O)O[C@@H](n2cnc3c(N)nc(Cl)nc32)C[C@@H]1O` [drawing 278], for which the IC50 in experiment [9] stood at 20 nM.
Take `C#C[C@]1(COP(=O)(O)OP(=O)(O)OP(=O)(O)O)O[C@@H](n2cnc3c(N)nc(F)nc32)C[C@@H]1O` [drawing 279]: the IC50 in [10] is 17.8 nM.
In the case of `C#C[C@]1(COP(=O)(O)OP(=O)(O)OP(=O)(O)O)O[C@@H](n2cnc3c(N)nc(Cl)nc32)C[C@@H]1O` [drawing 280], the IC50 in experiment [10] came out at 310 nM.
